Measured values reported in US7943340B2, “Fungal dipeptidyl peptidase IV (DPPIV) enzyme for reagent use” (priority 2003, dated 2011).
Where two headings read alike, the source gives them in different places.

Columns and labels:
[1] = system: fuLAP2; format: biochemical, Aspergillus fumigatus; conditions: for fuLAP2 hydrolytic activity, percentage of control without inhibitor: inhibitor 20 μM; for fuLAP2 hydrolytic activity, percentage of control without inhibitor / fuLAP2 hydrolytic activity, percentage of control without any cation: Leu-MCA substrate
Procedure: (§1) Inhibitors and metallic cations were pre-incubated with the enzymes for 15 min at 37° C. Then, Leu-AMC at a 5 mM final concentration was added. After further incubation for 60 min, enzyme activity was measured as described above. The inhibitors and their concentrations tested purified LAPs were: 500 μM amastatin (Bachem), 40 μM benzamidine (Sigma), 500 μM bestatin (Bachem), 5 mM/l mM EDTA (Sigma). 100 μM E-64 (L-trans-epoxysuccinyl-leu-4-guanidinobutylamide) (Bachem), 100 μM leupeptin (Sigma), 5 mM/1 mM ortho-phenanthroline (Sigma), 500 μM p-chloromercuribenzoic acid (Sigma), 100 μM pepstatin A (Sigma), 40 μM PMSF (Sigma), 20 μM TLCK (Roche Diagnostics), and 20 μM TPCK (Roche Diagnostics).

[2] = molecular target: T1, pkLAP (microsomal LAP from porcine kidney) (Sus scrofa, UniProt P15145); assay: Effect of chemical reagents (inhibitors, metallic cations) on LAP activity with Leu-AMC; format: biochemical; conditions: Leu-MCA substrate; for pkLAP hydrolytic activity, percentage of control without inhibitor: inhibitor 20 μM
T1 construct: purchased Sigma; host or cells: porcine kidney
T1 sequence (P15145 1-963): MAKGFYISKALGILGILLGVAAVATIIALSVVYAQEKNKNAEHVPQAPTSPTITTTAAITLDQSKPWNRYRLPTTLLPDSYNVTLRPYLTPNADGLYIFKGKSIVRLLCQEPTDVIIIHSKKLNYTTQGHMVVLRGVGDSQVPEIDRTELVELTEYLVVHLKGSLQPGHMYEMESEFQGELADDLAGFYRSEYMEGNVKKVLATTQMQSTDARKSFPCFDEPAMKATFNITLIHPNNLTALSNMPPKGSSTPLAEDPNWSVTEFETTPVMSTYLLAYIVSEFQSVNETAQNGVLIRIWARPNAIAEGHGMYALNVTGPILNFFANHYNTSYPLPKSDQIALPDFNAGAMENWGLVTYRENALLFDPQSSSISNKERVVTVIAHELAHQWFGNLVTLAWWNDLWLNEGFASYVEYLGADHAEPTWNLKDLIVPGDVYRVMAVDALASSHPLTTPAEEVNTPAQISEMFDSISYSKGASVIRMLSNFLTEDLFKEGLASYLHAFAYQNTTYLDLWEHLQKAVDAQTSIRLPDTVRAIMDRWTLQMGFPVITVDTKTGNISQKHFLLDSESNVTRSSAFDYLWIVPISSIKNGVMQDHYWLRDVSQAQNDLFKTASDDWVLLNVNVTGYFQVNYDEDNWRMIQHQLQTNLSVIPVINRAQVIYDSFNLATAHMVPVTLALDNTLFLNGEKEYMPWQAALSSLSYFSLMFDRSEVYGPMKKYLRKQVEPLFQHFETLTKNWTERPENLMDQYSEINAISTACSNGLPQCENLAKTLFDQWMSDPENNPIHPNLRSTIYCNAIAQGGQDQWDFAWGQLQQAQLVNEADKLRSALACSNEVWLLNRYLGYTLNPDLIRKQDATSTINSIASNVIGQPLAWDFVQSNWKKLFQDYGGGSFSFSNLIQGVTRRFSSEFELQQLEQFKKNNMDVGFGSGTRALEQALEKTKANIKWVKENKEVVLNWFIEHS
Procedure: as §1

[3] = system: all the LAPs tested (ruLAP1, ruLAP2, fuLAP1, fuLAP2, pkLAP); format: biochemical; conditions: for effect of inhibitor on all the LAPs tested: Leu-AMC 5 mM, amastatin 500 μM, ortho-phenantroline 1 and 5 mM, others as
Procedure: as §1

[4] = molecular target: fuLAP1 (Aspergillus fumigatus, UniProt Q5VJG6); format: biochemical; conditions: Leu-MCA substrate; for fuLAP1 hydrolytic activity, percentage of control without inhibitor: inhibitor 20 μM
Chain of fuLAP1 (Q5VJG6 15-388, looked up, natural form): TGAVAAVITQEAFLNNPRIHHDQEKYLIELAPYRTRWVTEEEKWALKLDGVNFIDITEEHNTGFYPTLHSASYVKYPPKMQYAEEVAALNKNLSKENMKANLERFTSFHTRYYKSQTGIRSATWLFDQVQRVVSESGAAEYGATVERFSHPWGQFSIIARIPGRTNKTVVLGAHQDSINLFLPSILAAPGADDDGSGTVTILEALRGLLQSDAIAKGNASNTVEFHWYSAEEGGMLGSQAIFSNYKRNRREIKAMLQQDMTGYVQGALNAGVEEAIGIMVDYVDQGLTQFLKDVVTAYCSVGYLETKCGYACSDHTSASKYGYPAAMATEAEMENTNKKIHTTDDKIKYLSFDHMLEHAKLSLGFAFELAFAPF
Procedure: as §1

[5] = molecular target: ruLAP1 (Trichophyton rubrum, UniProt Q5QHG5); format: biochemical; conditions: Leu-MCA substrate; for ruLAP1 hydrolytic activity, percentage of control without inhibitor: inhibitor 20 μM
Chain of ruLAP1 (Q5QHG5 19-373): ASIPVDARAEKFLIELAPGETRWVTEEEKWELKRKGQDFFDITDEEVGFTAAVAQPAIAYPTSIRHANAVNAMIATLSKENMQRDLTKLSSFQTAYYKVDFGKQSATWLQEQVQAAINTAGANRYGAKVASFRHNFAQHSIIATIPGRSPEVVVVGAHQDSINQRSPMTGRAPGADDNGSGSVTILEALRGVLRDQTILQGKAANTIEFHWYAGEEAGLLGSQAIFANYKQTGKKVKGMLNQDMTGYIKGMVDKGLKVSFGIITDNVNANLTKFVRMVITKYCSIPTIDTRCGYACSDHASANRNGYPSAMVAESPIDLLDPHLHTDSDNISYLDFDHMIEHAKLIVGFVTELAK
Procedure: as §1

[6] = molecular target: ruLAP2 (Trichophyton rubrum, UniProt Q5QHG6); format: biochemical; conditions: for ruLAP2 hydrolytic activity, percentage of control without inhibitor: inhibitor 20 μM; for ruLAP2 hydrolytic activity, percentage of control without inhibitor / ruLAP2 hydrolytic activity, percentage of control without any cation: Leu-MCA substrate
Chain of ruLAP2 (Q5QHG6 22-495): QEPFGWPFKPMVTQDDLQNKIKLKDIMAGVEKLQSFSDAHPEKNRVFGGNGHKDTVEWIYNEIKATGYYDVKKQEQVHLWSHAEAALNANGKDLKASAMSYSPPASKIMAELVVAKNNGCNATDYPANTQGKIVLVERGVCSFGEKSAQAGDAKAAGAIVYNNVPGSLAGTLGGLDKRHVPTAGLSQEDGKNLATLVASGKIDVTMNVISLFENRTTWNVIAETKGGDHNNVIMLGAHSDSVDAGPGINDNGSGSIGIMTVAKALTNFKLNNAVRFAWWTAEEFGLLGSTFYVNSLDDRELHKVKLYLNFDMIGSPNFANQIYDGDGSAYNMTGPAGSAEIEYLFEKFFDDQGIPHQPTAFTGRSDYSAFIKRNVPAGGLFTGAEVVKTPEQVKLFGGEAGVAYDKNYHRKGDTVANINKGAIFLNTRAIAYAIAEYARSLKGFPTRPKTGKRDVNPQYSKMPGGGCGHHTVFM
Procedure: as §1

[7] = system: gliadin 33 mer; assay: Digestion of gliadin 33 mer (RP-HPLC, ESI-MS); format: biochemical, wheat

With Cc1ccc(S(=O)(=O)N[C@@H](CCCCN)C(=O)CCl)cc1 [TLCK] the “fuLAP2 hydrolytic activity, percentage of control without inhibitor” value [1] was 120%, the “pkLAP hydrolytic activity, percentage of control without inhibitor” value [2] was 113% and the “effect of inhibitor on all the LAPs tested” value [3] was “no clear inhibitory effects”. For the same molecule, the “fuLAP1 hydrolytic activity, percentage of control without inhibitor” value [4] was 80%, the “ruLAP1 hydrolytic activity, percentage of control without inhibitor” value [5] was 68% and the “ruLAP2 hydrolytic activity, percentage of control without inhibitor” value [6] was 96%.

In the case of [Cl-].[Cl-].[Co+2] [Co^++, CoCl2], the “effect of divalent cation on fuLAP2 activity” value ([1]; Leu-AMC substrate) is reported as “highly activated”, the “fuLAP2 hydrolytic activity, percentage of control without any cation” value ([1]; cation salt 0.5 mM) is reported as 378.0% and the “fuLAP2 hydrolytic activity, percentage of control without any cation” value ([1]; cation salt 1 mM) is reported as 662.7%. For the same molecule, the “pkLAP hydrolytic activity, percentage of control without any cation” value ([2]; cation salt 0.5 mM) was 876.1%, the “pkLAP hydrolytic activity, percentage of control without any cation” value ([2]; cation salt 1 mM) was 899.8% and the “increase of the activity of the LAPs” value ([3]; concentration up to 1 mM, with the exception of fuLAP1) was 200% to 900%. For the same molecule, the “fuLAP1 hydrolytic activity, percentage of control without any cation” value ([4]; cation salt 0.5 mM) was 104.3%, the “fuLAP1 hydrolytic activity, percentage of control without any cation” value ([4]; cation salt 1 mM) was 96.5% and the “ruLAP1 hydrolytic activity, percentage of control without any cation” value ([5]; cation salt 0.5 mM) was 210.2%. The “ruLAP1 hydrolytic activity, percentage of control without any cation” value ([5]; cation salt 1 mM) was 202.1%, the “effect of divalent cation on ruLAP2 activity” value ([6]; Leu-AMC substrate) was “highly activated” and the “ruLAP2 hydrolytic activity, percentage of control without any cation” value ([6]; cation salt 0.5 mM) was 591.2%. For the same molecule, the “ruLAP2 hydrolytic activity, percentage of control without any cation” value ([6]; cation salt 1 mM) was 789.7%.

For Chymotrypsin [reference compound], the “digestion of the peptide with other enzymes” value ([7]; 20 h, combinations with both enzymes at E/S (w:w) 1:50) was “not able to breakdown the peptide”.

With Cc1ccc(S(=O)(=O)N[C@@H](Cc2ccccc2)C(=O)CCl)cc1 [TPCK] the “fuLAP2 hydrolytic activity, percentage of control without inhibitor” value [1] was 87%, the “pkLAP hydrolytic activity, percentage of control without inhibitor” value [2] was 108% and the “effect of inhibitor on all the LAPs tested” value [3] was “no clear inhibitory effects”. The “fuLAP1 hydrolytic activity, percentage of control without inhibitor” value [4] was 95%, the “ruLAP1 hydrolytic activity, percentage of control without inhibitor” value [5] was 68% and the “ruLAP2 hydrolytic activity, percentage of control without inhibitor” value [6] was 79%.

B1: Cytosolic porcine kidney aminopeptidase: cytosolic leucine aminopeptidase from porcine kidney, Sigma (protein, UniProt P28839 1-519, looked up)
Cytosol aminopeptidase: MFLLPLPAAARVAVRQLSVRRFWGPGPDAANMTKGLVLGIYSKEKEDDAPQFTSAGENFDKLVSGKLREILNISGPPLKAGKTRTFYGLHEDFSSVVVVGLGKKGAGVDDQENWHEGKENIRAAVAAGCRQIQDLEIPSVEVDPCGDAQAAAEGAVLGLYEYDELKQKKKVVVSAKLHGSGDQEAWQRGVLFASGQNLARHLMETPANEMTPTRFAEVIEKNLKSASSKTDVHIRPKSWIEEQEMGSFLSVAKGSEEPPVFLEIHYKGSPDASDPPLVFVGKGITFDSGGISIKASANMDLMRADMGGAATICSTIVSAAKLDLPINLVGLAPLCENMPSGKANKPGDVVRAKNGKTIQVDNTDAEGRLILADALCYAHTFNPKVIINAATLTGAMDIALGSGATGVFTNSSWLWNKLFEASIETGDRVWRMPLFEHYTKQIVDCQLADVNNIGKYRSAGACTAAAFLKEFVTHPKWAHLDIAGVMTNKDEVPYLRKGMAGRPTRTLIEFLLRFSQDSA
For B1, the “digestion of the 33 mer” value ([7]; 37° C., 1 mM CoCl2, pH7.2) was “totally inactive”.
